Numbers after ± are expanded uncertainties.
Test: xn = mol fraction of the nth substance listed
Conditions: 101 kPa, Liquid, Vibrating tube method

CC(=O)N1CCOCC1 [4-acetylmorpholine] + CCc1ccccc1
mass density [kg/m3]
Conditions | 293.15 K | 303.15 K | 313.15 K | 323.15 K | 333.15 K | 343.15 K
x2 = 0.0456 | 1102.4 ± 6.1 | 1094.5 ± 6.1 | 1085.9 ± 6.1 | 1077.3 ± 6.1 | 1068.9 ± 6.1 | 1060.3 ± 6.1
x2 = 0.1256 | 1082.6 ± 6 | 1074.7 ± 6 | 1066.2 ± 6 | 1057.7 ± 6 | 1049.2 ± 6 | 1040.6 ± 6
x2 = 0.1853 | 1068 ± 6 | 1060 ± 6 | 1051.5 ± 6 | 1042.9 ± 6 | 1034.3 ± 6 | 1025.7 ± 6
x2 = 0.2457 | 1053.2 ± 6 | 1045.2 ± 6 | 1036.6 ± 6 | 1027.9 ± 6 | 1019.4 ± 6 | 1010.6 ± 6
x2 = 0.2984 | 1040.5 ± 6 | 1032.4 ± 6 | 1023.7 ± 6 | 1015 ± 6 | 1006.3 ± 6 | 997.5 ± 6
x2 = 0.3486 | 1028.3 ± 6 | 1020.1 ± 6 | 1011.4 ± 6 | 1002.6 ± 6 | 993.8 ± 6 | 985 ± 6
x2 = 0.3899 | 1018.3 ± 6 | 1010 ± 6 | 1001.2 ± 6 | 992.4 ± 6 | 983.6 ± 6 | 974.7 ± 6
x2 = 0.4452 | 1004.8 ± 6 | 996.5 ± 6 | 987.7 ± 6 | 978.9 ± 6 | 969.9 ± 6 | 960.9 ± 6
x2 = 0.4843 | 995.3 ± 6 | 986.9 ± 6 | 978 ± 6 | 969.2 ± 6 | 960.2 ± 6 | 951.2 ± 6
x2 = 0.5433 | 980.8 ± 6 | 972.3 ± 6 | 963.5 ± 6 | 954.6 ± 6 | 945.6 ± 6 | 936.6 ± 6
x2 = 0.5894 | 969.5 ± 6 | 961 ± 6 | 952.1 ± 6 | 943.2 ± 6 | 934.2 ± 6 | 925.2 ± 6
x2 = 0.6555 | 953.2 ± 6 | 944.7 ± 6 | 935.8 ± 6 | 926.9 ± 6 | 917.8 ± 6 | 908.8 ± 6
x2 = 0.6983 | 942.6 ± 6 | 934 ± 6 | 925.1 ± 6 | 916.2 ± 6 | 907.2 ± 6 | 898.3 ± 6
x2 = 0.7452 | 931 ± 6 | 922.4 ± 6 | 913.5 ± 6 | 904.6 ± 6 | 895.6 ± 6 | 886.6 ± 6
x2 = 0.7984 | 917.7 ± 6 | 909 ± 6 | 900.2 ± 6 | 891.2 ± 6 | 882.3 ± 6 | 873.4 ± 6
x2 = 0.8422 | 906.7 ± 6 | 898 ± 6 | 889.3 ± 6 | 880.4 ± 6 | 871.4 ± 6 | 862.4 ± 6
x2 = 0.9328 | 884.2 ± 6 | 875.5 ± 6 | 866.7 ± 6 | 857.8 ± 6 | 848.7 ± 6 | 839.7 ± 6
x2 = 0.9784 | 872.8 ± 6 | 864.1 ± 6 | 855.2 ± 6 | 846.2 ± 6 | 837.1 ± 6 | 828 ± 6

CC(=O)N1CCOCC1 [4-acetylmorpholine] + Cc1ccccc1
mass density [kg/m3]
Conditions | 293.15 K | 303.15 K | 313.15 K | 323.15 K | 333.15 K | 343.15 K
x2 = 0.0498 | 1104.1 ± 6.1 | 1096.4 ± 6.1 | 1087.8 ± 6.1 | 1079.4 ± 6.1 | 1071.2 ± 6.1 | 1063.2 ± 6.1
x2 = 0.0975 | 1094.3 ± 6.1 | 1086.5 ± 6.1 | 1077.8 ± 6 | 1069.6 ± 6 | 1061.4 ± 6 | 1053.3 ± 6
x2 = 0.1453 | 1084 ± 6 | 1076.5 ± 6 | 1068.2 ± 6 | 1059.9 ± 6 | 1051.6 ± 6 | 1043.4 ± 6
x2 = 0.2109 | 1070.1 ± 6 | 1062.5 ± 6 | 1054 ± 6 | 1045.6 ± 6 | 1036.8 ± 6 | 1029.2 ± 6
x2 = 0.2873 | 1053.3 ± 6 | 1045.4 ± 6 | 1037.1 ± 6 | 1028.6 ± 6 | 1020.2 ± 6 | 1012 ± 6
x2 = 0.3276 | 1044.3 ± 6 | 1036.5 ± 6 | 1028.1 ± 6 | 1019.5 ± 6 | 1011 ± 6 | 1002.5 ± 6
x2 = 0.3865 | 1030.8 ± 6 | 1022.8 ± 6 | 1014.6 ± 6 | 1005.8 ± 6 | 997.2 ± 6 | 988.6 ± 6
x2 = 0.4536 | 1015.1 ± 6 | 1007 ± 6 | 998.7 ± 6 | 989.8 ± 6 | 981.2 ± 6 | 972.2 ± 6
x2 = 0.4953 | 1005.1 ± 6 | 996.9 ± 6 | 988.7 ± 6 | 979.7 ± 6 | 970.8 ± 6 | 962.1 ± 6
x2 = 0.5235 | 998.4 ± 6 | 990 ± 6 | 981.7 ± 6 | 972.7 ± 6 | 964.1 ± 6 | 954.5 ± 6
x2 = 0.5641 | 988.2 ± 6 | 979.8 ± 6 | 971.6 ± 6 | 962.5 ± 6 | 953.8 ± 6 | 944.9 ± 6
x2 = 0.6033 | 978.3 ± 6 | 969.9 ± 6 | 961.7 ± 6 | 952.5 ± 6 | 943.8 ± 6 | 935 ± 6
x2 = 0.6844 | 957.3 ± 6 | 949 ± 6 | 940.7 ± 6 | 931.5 ± 6 | 922.7 ± 6 | 913.9 ± 6
x2 = 0.7562 | 937.8 ± 6 | 929.6 ± 6 | 921.3 ± 6 | 912.1 ± 6 | 903.2 ± 6 | 894.7 ± 6
x2 = 0.8126 | 922.2 ± 6 | 913.7 ± 6 | 905.5 ± 6 | 896.2 ± 6 | 887.4 ± 6 | 879.3 ± 6
x2 = 0.8843 | 901.8 ± 6 | 893.2 ± 6 | 885 ± 6 | 875.6 ± 6 | 866.8 ± 6 | 857.9 ± 6
x2 = 0.9225 | 890.5 ± 6 | 881.8 ± 6 | 873.5 ± 6 | 864.1 ± 6 | 855.3 ± 6 | 846.4 ± 6
x2 = 0.9832 | 872.3 ± 6 | 863.3 ± 6 | 855.2 ± 6 | 845.9 ± 6 | 837.1 ± 6 | 828.2 ± 6

Source: the NIST ThermoML archive (doi:10.1016/j.jct.2008.07.009)
